Experimental data published in US10561676B2, “Method for treating cancer using dual antagonists of CXCR1 and CXCR2” (Syntrix Biosystems, Inc., priority 2018, dated 2020).

Legend:
[1] = system: C3Tag mouse model of breast cancer; test: C3Tag mouse model of breast cancer; type: in vivo
Source text: The C31-T-antigen (C3Tag) mouse model is a validated model of human triple-negative basal cell breast cancer as shown by gene expression analysis (Maroulakou, 1994, Proc Natl Acad Sci, 91:11236-40, herein incorporated by reference). The expressed large T-antigen binds and inactivates the RB and p53 tumor suppressor genes, explaining why this model faithfully recapitulates human basal breast cancer, which also harbors RB and p53 inactivation. This model also has frequent K-Ras amplification and infrequent Ras mutations. Treatment regimens were started following tumor manifestation. SX-682 was given orally via medicated feed, at an approximate dose of 10 mg/day/mouse. CP was administered once weekly via intraperitoneal injection at a dose of 50 mg/kg.

[2] = system: Ptenpc−/−p53pc−/−Smad4pc−/− mice; test: Ptenpc−/−p53pc−/−Smad4pc−/− mouse model of castration resistant prostate cancer; type: in vivo; settings: 4-6 weeks
Procedure: The genetically engineered Ptenpc−/−p53pc−/−Smad4pc−/− mouse is a prostate-specific PB promoter-driven (PB-Cre4) conditional triple knockout model (i.e., prostate-specific deletion of all three tumor suppressors, Pten, p53 and Smad4 occurs in the ‘prostate cancer’ or ‘pc’). […] SX-682 was used as a spray dried dispersion (Formulation Example 1), and was administered to mice via oral gavage as a suspension in 0.5% aq. methylcellulose. Treatment was continued for 4-6 weeks and prostate weights measured to determine tumor burden. […] Mean+SE.

[3] = SX-682 10 mg/day/mouse oral feed + CP 50 mg/kg weekly i.p.

## O=C(Nc1ccc(F)cc1)c1cnc(SCc2cc(OC(F)(F)F)ccc2B(O)O)nc1 [SX-682, 2-(2-boronic acid-5-trifluoromethoxy-benzylsulfanyl)-pyrimidine-5-carboxylic acid (4-fluoro-phenyl)-amide]
[1]; 10 mg/day/mouse oral feed
  tumor growth vs untreated controls, SX-682 alone: significantly reduced tumor growth
[1]; [3]
  median survival, SX-682 combined with CP: > 60 days
  tumor growth vs untreated controls, SX-682 in combination with carboplatin: significantly reduced tumor growth
[1]; SX-682 10 mg/day/mouse oral, carboplatin 50 mg/kg weekly i.p., vehicle 18 days
  median survival, single agent: 28 days
[2]; 50 mg/kg b.i.d. oral gavage
  prostate weight (tumor burden), SX-682 alone: inhibited prostate cancer
[2]; SX-682 50 mg/kg b.i.d. oral + anti-PD1 and anti-CTLA4 200 μg each 3×/week
  prostate weight (tumor burden), SX-682 plus ICB: significantly better than control or either treatment alone
